Tests used:
[1] = biological target: T1, human AD brain homogenate (ADH) (Homo sapiens, UniProt P05067); test: Competition binding assay with a tritiated amyloid ligand using brain homogenate from AD patients; conditions: competition with 10 nM tritiated amyloid ligand, 100 μg/mL AD frontal cortex homogenate, PBS 0.1% BSA, 3 h, room temperature
T1 construct: from tissue; host or cells: frontal cortex (grey and white matter) of AD patients, homogenised in PBS
Procedure: A competition assay with a tritiated amyloid ligand was performed in 96-well plates (Greiner bio-one; Cat. 651201; Lot. 06260130) using brain homogenate from AD patients. Homogenates were prepared by homogenizing (Ultra-Turrax, setting 2, 30 s, 24000 rpm) dissected frontal cortex containing grey matter and white matter from AD patients in phosphate buffered saline (PBS, pH 7.4). The homogenate with a concentration of 100 mg wet tissue/mL was divided into aliquots of 300 μL and stored at −80° C. Varying concentrations of the unlabeled test substances were incubated with 100 μg/mL homogenate and 10 nM of the tritiated ligand in PBS, 0.1% BSA (final volume 200 μL) for 3 h at room temperature. Subsequently the binding mixture was filtered through Whatman GF/B filters (wetted with PBS, 0.1% BSA) using a Filtermate 196 harvester (Packard). Filters were then washed twice with PBS, 0.1% BSA and 40 μL scintillator was added to each well before the bound radioactivity was measured in a TopCount devise (Perkin Elmer). Non-specific binding was assessed by adding an excess of the reference ligand to the reaction mixture. Finally IC50 values were calculated with the help of appropriate analysis software.

[2] = Biodistribution (brain uptake and wash-out) in mice; type: in vivo, male NMRI mice
Procedure: Biodistribution and excretion studies were performed in male NMRI mice (body weight app. 30 g; 3 animals per time point). The animals were kept under normal laboratory conditions at a temperature of 22±2° C. and a dark/light rhythm of 12 h. Food and water were provided ad libitium. During an acclimation period of at least 3 days before the beginning of the study animals were clinically examined to ascertain the absence of abnormal clinical signs.
At 2 min, 5 min, 30 min, 1 h, 4 h post intravenous injection via the tail vein of ca. 185 kBq of the test compound, urine and feces were quantitatively collected. At the same time points, animals were sacrificed by decapitation under isoflurane anaesthesia and organs and tissues of interest were removed for the determination of radioactivity using a gamma-counter. For analysis the decay corrected percentage of the injected dose per tissue weight (% ID/g±standard deviation) was calculated.

amyloid beta plaques = biological target: T2, amyloid beta plaques (Homo sapiens, UniProt P05067); test: Autoradiographical analysis of binding to human brain sections; conditions: cortex sections of AD patients; controls from HC and FTD patients; blocking with excess of cold compound
T2 construct: Alzheimer's disease patients (AD) with amyloid beta plaques; from tissue; host or cells: fresh frozen and paraffin embedded frontal lobe sections of AD patients
Procedure: FIG. 4 Autoradiographical analysis of binding of compound 28 to brain sections from cortex of Alzheimer's disease patients (AD) with amyloid beta plaques. Control sections without amyloid beta pathology stem from healthy volunteers (HC) and fronto-temporal dementia (FTD) patients. Blocking of specific signals was performed with an excess of cold compound. […] Fresh frozen as well as paraffin embedded sections of the frontal lobe from Alzheimer's dementia patients, frontotemporal dementia patients and age matched controls were used for the study. Frozen sections, sliced at 18 μm thickness on a cryostate (Leica, Germany) and paraffin sections, sliced on a sliding microtom (Leica) at a thickness of 6 μm, were mounted onto glass slides (Superfrost Plus, Fa. Menzel, Braunschweig Germany). Frozen sections were allowed to adhere to the slides for several nights at −20° C. The paraffin sections were deparaffinized using routine histological methods. For binding studies sections were incubated with the labeled test compound at 10-20 Bq/μL diluted in 25 mM Hepes buffer, pH 7.4, 0.1% BSA (200-300 μL/slide) for 1.5 h. in a humidified chamber. For blocking experiments an excess of the unlabeled test substance was added to the incubation mixture. […] The air-dried sections were exposed to imaging plates and signals were detected by a phosphoimager device (Fuji BAS5000).

T1 sequence (P05067 672-713 limits assumed): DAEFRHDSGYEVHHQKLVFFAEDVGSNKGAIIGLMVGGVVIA
T2 sequence (P05067 672-713 limits assumed): as above

Row | SMILES | IC50 [1] | further results
1 | O=C(/C=C\Nc1ccc(OCCCF)cc1)c1ccccc1 [Compound 4, (Z)-3-{[4-(3-Fluoropropoxy)phenyl]amino}-1-phenylprop-2-en-1-one] | 18 nM | 
2 | CN(C)c1ccc(NC=CC(=O)c2ccc([18F])nc2)cc1 (mixture of isomers) [Compound 28, (E/Z)-3-{[4-(Dimethylamino)phenyl]amino}-1-(6-[^18F]-fluoropyridin-3-yl)prop-2-en-1-one] |  | Brain uptake and elimination of the radioactive background signal from the brain (in words) ([2]; healthy mouse brain, devoid of plaques): advantageous rapid elimination of the radioactive background signal from the brain; Brain uptake at 2 min ([2]; mice, 2 min after intravenous injection, [18F] signal, healthy brain): 7.66 % ID/g; Brain uptake at 30 min ([2]; mice, 30 min after intravenous injection, [18F] signal, healthy brain): 0.78 % ID/g; Brain wash-out ratio [% ID/g at 2 min]/[% ID/g at 30 min] ([2]; mice, intravenous injection, healthy brain): 9.8; Autoradiographic binding to brain sections (in words) (amyloid beta plaques): plaque-specific signals
3 | O=C(C=CNc1ccc(F)cc1)c1ccccc1 (mixture of isomers) [Compound 12, (E/Z)-3-[(4-Fluorophenyl)amino]-1-phenylprop-2-en-1-one] | 26 nM | 
4 | O=C(C=CNc1ccc(OCCF)cc1)c1ccc(-c2ccccc2)cc1 (mixture of isomers) [Compound 14, (E/Z)-1-Biphenyl-4-yl-3-{[4-(2-fluoroethoxy)phenyl]amino}prop-2-en-1-one] | 140 nM | 
5 | O=C(C=CNc1ccc(OCCF)cc1)c1ccc(Br)cc1 (mixture of isomers) [Compound 3, (E/Z)-1-(4-Bromophenyl)-3-{[4-(2-fluoroethoxy)phenyl]amino}prop-2-en-1-one] | 13 nM | 
6 | O=C(C=CNc1ccc(F)c(Br)c1)c1ccccc1 (mixture of isomers) [Compound 13, (E/Z)-3-[(3-Bromo-4-fluorophenyl)amino]-1-phenylprop-2-en-1-one] | 46 nM | 
7 | COc1ccc(NC=CC(=O)c2ccc(F)nc2)cc1 (mixture of isomers) [Compound 11, (E/Z)-1-(6-Fluoropyridin-3-yl)-3-[(4-methoxyphenyl)amino]prop-2-en-1-one] | 28 nM | 
8 | CN(C)c1ccc(NC=CC(=O)c2ccc(F)nc2)cc1 (mixture of isomers) [Compound 10, (E/Z)-3-{[4-(Dimethylamino)phenyl]amino}-1-(6-fluoropyridin-3-yl)prop-2-en-1-one] | 4 nM | 
9 | CN(C)c1ccc(NC=CC(=O)c2ccc(F)c(C(F)(F)F)c2)cc1 (mixture of isomers) [Compound 7, (E/Z)-3-{[4-(Dimethylamino)phenyl]amino}-1-[4-fluoro-3-(trifluoromethyl)phenyl]prop-2-en-1-one] | 258 nM | 
10 | CN(C)c1ccc(NC=CC(=O)c2ccc(F)cc2)cc1 (mixture of isomers) [Compound 6, (E/Z)-3-{[4-(Dimethylamino)phenyl]amino}-1-(4-fluorophenyl)prop-2-en-1-one] | 5 nM | 
11 | COc1ccc(NC=CC(=O)c2ccc(F)cc2)cc1 (mixture of isomers) [Compound 5, (E/Z)-1-(4-Fluorophenyl)-3-[(4-methoxyphenyl)amino]prop-2-en-1-one] | 400 nM | 
12 | O=C(C=CNc1ccc(OCCF)cc1)c1ccccc1 (mixture of isomers) [Compound 2, (E/Z)-3-{[4-(2-Fluoroethoxy)phenyl]amino}-1-phenylprop-2-en-1-one] | 17 nM | 
13 | O=C(C=CNc1ccc(OCF)cc1)c1ccccc1 (mixture of isomers) [Compound 1, (E/Z)-3-{[4-(Fluoromethoxy)phenyl]amino}-1-phenylprop-2-en-1-one] | 9 nM | 

Source: patent publication US20120237446A1, “Compounds for binding and imaging amyloid plaques and their use” (BAYER PHARMA AKTIENGESELLSCHAFT, priority 2005, published 2012)
